Assay results published in ChEMBL document CHEMBL4414672, “Synthesis of certain benzothieno[3,2-d]pyrimidine derivatives as a selective SIRT2 inhibitors” (Eur J Med Chem, 2020).

Legend:
Format in all cases: functional
CCRF-CEM = test: Growth inhibition of human CCRF-CEM cells at 10^-5 M incubated for 48 hrs by sulforhodamine B assay; settings: read-out: GI
HL-60(TB) = test: Growth inhibition of human HL-60(TB) cells at 10^-5 M incubated for 48 hrs by sulforhodamine B assay; settings: HL-60, 48 h, read-out: GI
MOLT-4 = test: Growth inhibition of human MOLT4 cells at 10^-5 M incubated for 48 hrs by sulforhodamine B assay; settings: MOLT-4, 48 h, read-out: GI
SR = test: Growth inhibition of human SR cells at 10^-5 M incubated for 48 hrs by sulforhodamine B assay; settings: read-out: GI
A549 = test: Growth inhibition of human A549/ATCC cells at 10^-5 M incubated for 48 hrs by sulforhodamine B assay; settings: A549, 48 h, read-out: GI
NCI-H23 = test: Growth inhibition of human NCI-H23 cells at 10^-5 M incubated for 48 hrs by sulforhodamine B assay; settings: NCI-H23, 48 h, read-out: GI
NCI-H322M = test: Growth inhibition of human NCI-H322M cells at 10^-5 M incubated for 48 hrs by sulforhodamine B assay; settings: read-out: GI
NCI-H460 = test: Growth inhibition of human NCI-H460 cells at 10^-5 M incubated for 48 hrs by sulforhodamine B assay; settings: NCI-H460, 48 h, read-out: GI
NCI-H522 = test: Growth inhibition of human NCI-H522 cells at 10^-5 M incubated for 48 hrs by sulforhodamine B assay; settings: NCI-H522, 48 h, read-out: GI
HCT-116 = test: Growth inhibition of human HCT116 cells at 10^-5 M incubated for 48 hrs by sulforhodamine B assay; settings: HCT-116, 48 h, read-out: GI
HCT-15 = test: Growth inhibition of human HCT15 cells at 10^-5 M incubated for 48 hrs by sulforhodamine B assay; settings: HCT-15, 48 h, read-out: GI
SW-620 = test: Growth inhibition of human SW620 cells at 10^-5 M incubated for 48 hrs by sulforhodamine B assay; settings: SW-620, 48 h, read-out: GI
SF-268 = test: Growth inhibition of human SF268 cells at 10^-5 M incubated for 48 hrs by sulforhodamine B assay; settings: SF-268, 48 h, read-out: GI
SF-295 = test: Growth inhibition of human SF295 cells at 10^-5 M incubated for 48 hrs by sulforhodamine B assay; settings: SF-295, 48 h, read-out: GI
SNB-19 = test: Growth inhibition of human SNB19 cells at 10^-5 M incubated for 48 hrs by sulforhodamine B assay; settings: SNB-19, 48 h, read-out: GI
SNB-75 = test: Growth inhibition of human SNB75 cells at 10^-5 M incubated for 48 hrs by sulforhodamine B assay; settings: SNB-75, 48 h, read-out: GI
LOX IMVI = test: Growth inhibition of human LOXIMVI cells at 10^-5 M incubated for 48 hrs by sulforhodamine B assay; settings: read-out: GI
Malme-3M = test: Growth inhibition of human MALME-3M cells at 10^-5 M incubated for 48 hrs by sulforhodamine B assay; settings: read-out: GI
M14 = test: Growth inhibition of human M14 cells at 10^-5 M incubated for 48 hrs by sulforhodamine B assay; settings: M14, 48 h, read-out: GI
SK-MEL-28 = test: Growth inhibition of human SK-MEL-28 cells at 10^-5 M incubated for 48 hrs by sulforhodamine B assay; settings: SK-MEL-28, 48 h, read-out: GI
SK-MEL-5 = test: Growth inhibition of human SK-MEL-5 cells at 10^-5 M incubated for 48 hrs by sulforhodamine B assay; settings: SK-MEL-5, 48 h, read-out: GI
UACC-62 = test: Growth inhibition of human UACC62 cells at 10^-5 M incubated for 48 hrs by sulforhodamine B assay; settings: UACC-62, 48 h, read-out: GI
IGROV-1 = test: Growth inhibition of human IGROV1 cells at 10^-5 M incubated for 48 hrs by sulforhodamine B assay; settings: IGROV-1, 48 h, read-out: GI
OVCAR-3 = test: Growth inhibition of human OVCAR3 cells at 10^-5 M incubated for 48 hrs by sulforhodamine B assay; settings: OVCAR-3, 48 h, read-out: GI
OVCAR-5 = test: Growth inhibition of human OVCAR5 cells at 10^-5 M incubated for 48 hrs by sulforhodamine B assay; settings: OVCAR-5, 48 h, read-out: GI
OVCAR-8 = test: Growth inhibition of human OVCAR8 cells at 10^-5 M incubated for 48 hrs by sulforhodamine B assay; settings: OVCAR-8, 48 h, read-out: GI
NCI/ADR-RES = test: Growth inhibition of human NCI/ADR-RES cells at 10^-5 M incubated for 48 hrs by sulforhodamine B assay; settings: read-out: GI
SK-OV-3 = test: Growth inhibition of human SKOV3 cells at 10^-5 M incubated for 48 hrs by sulforhodamine B assay; settings: SK-OV-3, 48 h, read-out: GI
786-0 = test: Growth inhibition of human 786-0 cells at 10^-5 M incubated for 48 hrs by sulforhodamine B assay; settings: 786-0, 48 h, read-out: GI
A498 = test: Growth inhibition of human A498 cells at 10^-5 M incubated for 48 hrs by sulforhodamine B assay; settings: A498, 48 h, read-out: GI
ACHN = test: Growth inhibition of human ACHN cells at 10^-5 M incubated for 48 hrs by sulforhodamine B assay; settings: read-out: GI
RXF 393 = test: Growth inhibition of human RXF393 cells at 10^-5 M incubated for 48 hrs by sulforhodamine B assay; settings: RXF 393, 48 h, read-out: GI
SN12C = test: Growth inhibition of human SN12C cells at 10^-5 M incubated for 48 hrs by sulforhodamine B assay; settings: read-out: GI
TK-10 = test: Growth inhibition of human TK10 cells at 10^-5 M incubated for 48 hrs by sulforhodamine B assay; settings: TK-10, 48 h, read-out: GI
DU-145 = test: Growth inhibition of human DU145 cells at 10^-5 M incubated for 48 hrs by sulforhodamine B assay; settings: DU-145, 48 h, read-out: GI
MCF7 = test: Growth inhibition of human MCF7 cells at 10^-5 M incubated for 48 hrs by sulforhodamine B assay; settings: MCF7, 48 h, read-out: GI
MDA-MB-231 = test: Growth inhibition of human MDA-MB-231 cells at 10^-5 M incubated for 48 hrs by sulforhodamine B assay; settings: MDA-MB-231, 48 h, read-out: GI
Hs-578T = test: Growth inhibition of human Hs 578T cells at 10^-5 M incubated for 48 hrs by sulforhodamine B assay; settings: read-out: GI
T47D = test: Growth inhibition of human T47D cells at 10^-5 M incubated for 48 hrs by sulforhodamine B assay; settings: read-out: GI

`N=C1Nc2c(sc3ccc(Cl)cc23)C(c2cccc([N+](=O)[O-])c2)N1` (stereo not drawn) showed an inhibition of growth at 10 µM (CCRF-CEM) of 8.41%, an inhibition of growth at 10 µM (HL-60(TB)) of 5.44% and an inhibition of growth at 10 µM (MOLT-4) of 21.2%. The inhibition of growth at 10 µM (SR) was -3.11%, the inhibition of growth at 10 µM (A549) was 20.4% and the inhibition of growth at 10 µM (NCI-H23) was 5.31%. For the same molecule, the inhibition of growth at 10 µM (NCI-H322M) was 4.7%, the inhibition of growth at 10 µM (NCI-H460) was 14.7% and the inhibition of growth at 10 µM (NCI-H522) was -4.45%. The inhibition of growth at 10 µM (HCT-116) was 2.65%, the inhibition of growth at 10 µM (HCT-15) was -4.21% and the inhibition of growth at 10 µM (SW-620) was 3.17%. The inhibition of growth at 10 µM (SF-268) was -1.81%, the inhibition of growth at 10 µM (SF-295) was -5.78% and the inhibition of growth at 10 µM (SNB-19) was 16.8%. It also gave an inhibition of growth at 10 µM (SNB-75) of -4.54%, an inhibition of growth at 10 µM (LOX IMVI) of -9.93% and an inhibition of growth at 10 µM (Malme-3M) of -4.49%. It also gave an inhibition of growth at 10 µM (M14) of -5.05%, an inhibition of growth at 10 µM (SK-MEL-28) of 4.08% and an inhibition of growth at 10 µM (SK-MEL-5) of -2.55%. For the same molecule, the inhibition of growth at 10 µM (UACC-62) was 23.1%, the inhibition of growth at 10 µM (IGROV-1) was 4.94% and the inhibition of growth at 10 µM (OVCAR-3) was 10.7%. For the same molecule, the inhibition of growth at 10 µM (OVCAR-5) was -1.04%, the inhibition of growth at 10 µM (OVCAR-8) was 9.4% and the inhibition of growth at 10 µM (NCI/ADR-RES) was 8.91%. For the same molecule, the inhibition of growth at 10 µM (SK-OV-3) was -1.73%, the inhibition of growth at 10 µM (786-0) was 16.5% and the inhibition of growth at 10 µM (A498) was 9.1%. It also gave an inhibition of growth at 10 µM (ACHN) of 22.8%, an inhibition of growth at 10 µM (RXF 393) of 4.42% and an inhibition of growth at 10 µM (SN12C) of -19.7%. It also gave an inhibition of growth at 10 µM (TK-10) of 40.3%, an inhibition of growth at 10 µM (DU-145) of 20.5% and an inhibition of growth at 10 µM (MCF7) of 10.7%. For the same molecule, the inhibition of growth at 10 µM (MDA-MB-231) was -0.16%, the inhibition of growth at 10 µM (Hs-578T) was -17.4% and the inhibition of growth at 10 µM (T47D) was 1.02%.

Work on `S=C1Nc2c(sc3ccc(Cl)cc23)C(c2ccc3ccccc3c2)N1` (stereo not drawn) yielded an inhibition of growth at 10 µM (CCRF-CEM) of -3.09%, an inhibition of growth at 10 µM (HL-60(TB)) of -2.53% and an inhibition of growth at 10 µM (MOLT-4) of 7.43%. The inhibition of growth at 10 µM (SR) was 19.4%, the inhibition of growth at 10 µM (A549) was 7.47% and the inhibition of growth at 10 µM (NCI-H23) was 15.2%. For the same molecule, the inhibition of growth at 10 µM (NCI-H322M) was 13.9%, the inhibition of growth at 10 µM (NCI-H460) was 6.2% and the inhibition of growth at 10 µM (NCI-H522) was 17.7%. The inhibition of growth at 10 µM (HCT-116) was 9.94%, the inhibition of growth at 10 µM (HCT-15) was 2.67% and the inhibition of growth at 10 µM (SW-620) was 3.99%. It also gave an inhibition of growth at 10 µM (SF-268) of 10.3%, an inhibition of growth at 10 µM (SF-295) of 3.23% and an inhibition of growth at 10 µM (SNB-19) of 7.85%. It also gave an inhibition of growth at 10 µM (SNB-75) of 26%, an inhibition of growth at 10 µM (LOX IMVI) of 7.47% and an inhibition of growth at 10 µM (Malme-3M) of 18.4%. The inhibition of growth at 10 µM (M14) was 7.85%, the inhibition of growth at 10 µM (SK-MEL-28) was -2.16% and the inhibition of growth at 10 µM (SK-MEL-5) was 5.24%. It also gave an inhibition of growth at 10 µM (UACC-62) of 13.9%, an inhibition of growth at 10 µM (IGROV-1) of 16.8% and an inhibition of growth at 10 µM (OVCAR-3) of 3.25%. The inhibition of growth at 10 µM (OVCAR-5) was 5.36%, the inhibition of growth at 10 µM (OVCAR-8) was 8.23% and the inhibition of growth at 10 µM (NCI/ADR-RES) was 4.45%. For the same molecule, the inhibition of growth at 10 µM (SK-OV-3) was 12.2%, the inhibition of growth at 10 µM (786-0) was 4.93% and the inhibition of growth at 10 µM (A498) was 14.9%. For the same molecule, the inhibition of growth at 10 µM (ACHN) was 12.4%, the inhibition of growth at 10 µM (RXF 393) was -0.71% and the inhibition of growth at 10 µM (SN12C) was 9.45%. It also gave an inhibition of growth at 10 µM (TK-10) of -25.5%, an inhibition of growth at 10 µM (DU-145) of -6.73% and an inhibition of growth at 10 µM (MCF7) of -6.73%. The inhibition of growth at 10 µM (MDA-MB-231) was 23%, the inhibition of growth at 10 µM (Hs-578T) was 8.86% and the inhibition of growth at 10 µM (T47D) was 22.5%.
